Assay results reported in patent US8232273B2, “Heterocyclic compounds and methods of use” (Genentech, Inc., priority 2008, dated 2012).

Assays:
Bcl-xL (GST-Bcl-xL) [1] = biological target: T1, Bcl-xL (GST-Bcl-xL) (Homo sapiens, UniProt Q07817); assay: TR-FRET binding assay, competition with F-Bak for the Bcl-xL binding site; conditions: values listed in the order of Table 1, read-out: TR-FRET assay results (Ki), Bcl-xL
Experimental: The measurement of competition of compounds of the invention with F-Bak for a Bcl-2 family protein (Bcl-xL) binding site using a Time Resolved Fluorescence Resonance Energy Transfer (TR-FRET) binding assay:
Test compounds were serially diluted in DMSO starting at 50 μM (2× starting concentration; 10% DMSO) and 10 μt transferred into a 384-well plate.
The samples are then mixed on a shaker for 1 minute then incubated for an additional 2 hours at room temperature. For each assay plate, a probe/antibody and protein/antibody/probe mixture were included as a negative and a positive control, respectively. Fluorescence was measured on the Envision (Perkin Elmer) using a 340/35 nm excitation filter and 520/525 (F-Bak) and 495/510 nm (Tb-labeled anti-his antibody) emission filters. Dissociation constants (Ki) were determined using Wang's equation (see, Wang, Z. X. An exact mathematical expression for describing competitive binding of two different ligands to a protein molecule. FEBS Lett. 1995 360:111-114). The TR-FRET assay can be performed in the presence of varying concentrations of human serum (HS) or fetal bovine serum (FBS).

Bcl-xL (GST-Bcl-xL) [2] = biological target: T1, Bcl-xL (GST-Bcl-xL); assay: AlphaScreen Bcl-xL binding assay, competition with biotinylated Bim peptide; parameters: made in house; conditions: values listed in the order of Table 1; read-out: Alphascreen results (IC50) against the Bcl-xL protein
Excerpt: The measurement of competition of compounds of the invention with Bim26-mer for a Bcl-2 family protein binding site using an Alpha Screen Bcl-xL binding assay:
The BH3 proteins AlphaScreen™ assay was used to identify active small molecules Bcl-2 family protein screen, e.g., Bcl-xL, hmMcl-1 screen.
The beads come in close proximity when the protein and the peptides interact. Donor beads contain a photosensitiser that converts oxygen to an excited form of O2 at an excitation of 680 nm. Energy is transformed from the singlet oxygen and reacts with chemiluminescers on the acceptor bead, resulting in light emission at 520-620 nm. […] With this information, the IC50 of each compound was calculated
GST-Bcl-xL, GST-hmMcl-1 and biotinylated GST proteins were prepared in-house and were stored as stock solutions at −80° C. The biotinylated-Bak, and biotinylated-Bim peptides were purchased from Auspep and were stored as 500 μM stock solutions in 100% DMSO at −80° C. […] DMSO was purchased from AnalaR.
Compounds of the invention were prepared as 10 mM stocks with 100% DMSO on the day prior to performing the assay. […] To achieve a final compound concentration of 1 μM, in a separate matrical plate, 28 μL of 100% DMSO and 2 μL of 10 mM compound was added to a well, mixed well, 2 μL of this solution was taken and added to 38 μL of 100% DMSO. 20 μL of this solution was added to the test matrical plate. Several control compounds were included in the test plates. For the control wells 15 μL 100% DMSO only was added to the appropriate wells of each plate. The compound plates were then serially diluted 2 fold using the MiniTrak. Once titrations were complete, the compound plate was immediately covered with a foil seal to prevent evaporation.
The assay and bead buffers were prepared fresh. Each titrated compound plate was assayed in duplicate. The following volumes were sufficient to run 12 Proxiplates (4 assay plates run in duplicate in each of Bclxl, hmMcl and counter assays)
Protein and Peptide Preparation; and Assay Performance • 1. The assay and bead buffers were used to prepare the acceptor and donor solutions. ALPHASCREEN™ beads are light sensitive and therefore prepared in a darkened room. 2.5 μL of beads were added per 1 mL of buffer. • 2. The volume of protein or peptide to add was calculated using the following formula:
V2=Volume of stock protein/Peptide to add to Acceptor/Donor solution • 3. The assay components were prepared as separate Acceptor and Donor Solutions. The Acceptor Solution contained Acceptor beads and target protein, while the Donor Solution contained Donor beads and biotinylated peptide.
• 4. After the solutions were prepared, they were left to incubate for 30 minutes at room temperature to allow the beads to bind to the protein and the peptide. • 5. 50 μL of Bcl-xL solution, 50 μL of hmMcl-1 solution and 50 μL of biotinylated-GST were added into separate deep wells on an assay plate. A control 50 μL Assay/Bead buffer was added separate well plates (no protein). • 6. 50 μL of Bim solution and 50 μL of Bak solution were added into separate deep well plates. • 7. Transfer 0.3 μL it of sample from the compound plate into each assay plate. • 8. Incubated for 30 mins at RT, then add 5 μL of the Donor solution. After addition of the Donor solution, tapped plates gently and sealed individually with adhesive film. • 9.
The percent inhibition was calculated using the following equation:
[formula] • x=RFU obtained after compound treatment • μ^−=RFU obtained for the negative controls (no protein controls) • μ^+=RFU obtained for the positive controls (DMSO vehicle controls)

T1 sequence (Q07817 whole entry, species assumed): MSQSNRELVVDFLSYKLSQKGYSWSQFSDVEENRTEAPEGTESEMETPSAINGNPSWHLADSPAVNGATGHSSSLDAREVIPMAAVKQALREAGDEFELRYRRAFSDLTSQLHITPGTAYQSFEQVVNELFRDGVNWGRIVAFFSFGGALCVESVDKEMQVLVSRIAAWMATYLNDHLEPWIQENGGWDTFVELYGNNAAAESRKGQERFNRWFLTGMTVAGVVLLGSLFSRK

Row | SMILES | Ki (Bcl-xL (GST-Bcl-xL) [1]) [nM] | IC50 (Bcl-xL (GST-Bcl-xL) [2]) [nM]
1 | O=C(Nc1nc2ccccc2s1)c1cccc2c1CN(c1nc(C(=O)O)c(-c3ccc(CO)cc3)s1)CC2 [Example 34, 2-(8-(benzo[d]thiazol-2-ylcarbamoyl)-3,4-dihydroisoquinolin-2(1H)-yl)-5-(4-(hydroxymethyl)phenyl)thiazole-4-carboxylic acid] | 4 | 5
2 | O=C(Nc1nc2ccccc2s1)c1cccc2c1CN(c1ccc(CCCOc3ccccc3)c(C(=O)O)n1)CC2 [Compound 121, 6-(8-(benzo[d]thiazol-2-ylcarbamoyl)-3,4-dihydroisoquinolin-2(1H)-yl)-3-(3-phenoxypropyl)picolinic acid] | 10.6 | 136
3 | CC(C)(C)OC(=O)Nc1ccc(OCCCc2sc(N3CCc4cccc(C(=O)Nc5nc6ccccc6s5)c4C3)nc2C(=O)O)cc1 [Example 4, 2-(8-(benzo[d]thiazol-2-ylcarbamoyl)-3,4-dihydroisoquinolin-2(1H)-yl)-5-(3-(4-(tert-butoxycarbonylamino)phenoxy)propyl)thiazole-4-carboxylic acid] | 0.3 | 0.8
4 | N#Cc1c(-c2ccc(OCCCc3sc(N4CCc5cccc(C(=O)Nc6nc7ccccc7s6)c5C4)nc3C(=O)O)cc2)n[nH]c1N [Example 31, 5-(3-(4-(5-amino-4-cyano-1H-pyrazol-3-yl)phenoxy)propyl)-2-(8-(benzo[d]thiazol-2-ylcarbamoyl)-3,4-dihydroisoquinolin-2(1H)-yl)thiazole-4-carboxylic acid] | 0.1 | 0.3
5 | Nc1ccc(OCCCc2sc(N3CCc4cccc(C(=O)Nc5nc6ccccc6s5)c4C3)nc2C(=O)O)cc1 [Example 6, 5-(3-(4-aminophenoxy)propyl)-2-(8-(benzo[d]thiazol-2-ylcarbamoyl)-3,4-dihydroisoquinolin-2(1H)-yl)thiazole-4-carboxylic acid] | 0.2 | 2
6 | N#Cc1c(-c2ccc(OCc3ccc(-c4sc(N5CCc6cccc(C(=O)Nc7nc8ccccc8s7)c6C5)nc4C(=O)O)cc3)cc2)n[nH]c1N [Example 35, 5-(4-((4-(5-amino-4-cyano-1H-pyrazol-3-yl)phenoxy)methyl)phenyl)-2-(8-(benzo[d]thiazol-2-ylcarbamoyl)-3,4-dihydroisoquinolin-2(1H)-yl)thiazole-4-carboxylic acid] | 4 | 10
7 | N#Cc1c(-c2ccc(OCc3sc(N4CCc5cccc(C(=O)Nc6nc7ccccc7s6)c5C4)nc3C(=O)O)cc2)n[nH]c1N [Example 45, 5-((4-(5-amino-4-cyano-1H-pyrazol-3-yl)phenoxy)methyl)-2-(8-(benzo[d]thiazol-2-ylcarbamoyl)-3,4-dihydroisoquinolin-2(1H)-yl)thiazole-4-carboxylic acid] | 1 | 4
8 | N#Cc1cscc1-c1ccc(OCCCc2sc(N3CCc4cccc(C(=O)Nc5nc6ccccc6s5)c4C3)nc2C(=O)O)cc1 [Example 51, 2-[8-(Benzothiazol-2-ylcarbamoyl)-3,4-dihydro-1H-isoquinolin-2-yl]-5-{3-[4-(4-cyano-thiophen-3-yl)-phenoxy]-propyl}-thiazole-4-carboxylic acid] | 0.3 | 6
9 | NCc1ccc(OCCCc2sc(N3CCc4cccc(C(=O)Nc5nc6ccccc6s5)c4C3)nc2C(=O)O)cc1 [Compound 141, 5-(3-(4-(aminomethyl)phenoxy)propyl)-2-(8-(benzo[d]thiazol-2-ylcarbamoyl)-3,4-dihydroisoquinolin-2(1H)-yl)thiazole-4-carboxylic acid] | 0.487 | 3800
10 | O=C(Nc1nc2ccccc2s1)c1cccc2c1CN(c1nc(C(=O)O)c(CCCOc3ccncc3)s1)CC2 [Example 10, 2-(8-(benzo[d]thiazol-2-ylcarbamoyl)-3,4-dihydroisoquinolin-2(1H)-yl)-5-(3-(pyridin-4-yloxy)propyl)thiazole-4-carboxylic acid] | 0.1 | 1
11 | CC(C)(C)OC(=O)Nc1cccc(OCCCc2sc(N3CCc4cccc(C(=O)Nc5nc6ccccc6s5)c4C3)nc2C(=O)O)c1 [Example 5, 2-(8-(benzo[d]thiazol-2-ylcarbamoyl)-3,4-dihydroisoquinolin-2(1H)-yl)-5-(3-(3-(tert-butoxycarbonylamino)phenoxy)propyl)thiazole-4-carboxylic acid] | 1 | 2
12 | O=C(Nc1nc2ccccc2s1)c1cccc2c1CN(c1nc(C(=O)O)c(CCCN3CCCC3)s1)CC2 [Example 18, 2-(8-(benzo[d]thiazol-2-ylcarbamoyl)-3,4-dihydroisoquinolin-2(1H)-yl)-5-(3-(pyrrolidin-1-yl)propyl)thiazole-4-carboxylic acid] | 4 | 6
13 | CN(C)CC#Cc1ccc(OCCCc2sc(N3CCc4cccc(C(=O)Nc5nc6ccccc6s5)c4C3)nc2C(=O)O)cc1F [Example 117, 2-(8-(benzo[d]thiazol-2-ylcarbamoyl)-3,4-dihydroisoquinolin-2(1H)-yl)-5-(3-(4-(3-(dimethylamino)prop-1-ynyl)-3-fluorophenoxy)propyl)thiazole-4-carboxylic acid] | 3 | 17
14 | O=C(Nc1nc2ccccc2s1)c1cccc2c1CN(c1ccc(CCc3ccccc3)c(C(=O)O)n1)CC2 [Compound 127, 6-(8-(benzo[d]thiazol-2-ylcarbamoyl)-3,4-dihydroisoquinolin-2(1H)-yl)-3-phenethylpicolinic acid] | 660 | 598
15 | O=C(O)c1coc(N2CCc3cccc(C(=O)Nc4nc5ccccc5s4)c3C2)n1 [Compound 124, 2-(8-(benzo[d]thiazol-2-ylcarbamoyl)-3,4-dihydroisoquinolin-2(1H)-yl)oxazole-4-carboxylic acid] |  | 865
16 | O=C(Nc1nc2ccccc2s1)c1cccc2c1CN(c1ccc(/C=C/c3ccccc3)c(C(=O)O)n1)CC2 [Compound 135, (E)-6-(8-(benzo[d]thiazol-2-ylcarbamoyl)-3,4-dihydroisoquinolin-2(1H)-yl)-3-styrylpicolinic acid] |  | 92.4
17 | COc1ccc(COc2ccc(N3CCc4cccc(C(=O)Nc5nc6ccccc6s5)c4C3)nc2C(=O)O)cc1 [Compound 136, 6-(8-(benzo[d]thiazol-2-ylcarbamoyl)-3,4-dihydroisoquinolin-2(1H)-yl)-3-(4-methoxybenzyloxy)picolinic acid] |  | 19000
18 | O=C(O)c1ccnc(N2CCc3cccc(C(=O)Nc4nc5ccccc5s4)c3C2)n1 [Compound 122, 2-(8-(benzo[d]thiazol-2-ylcarbamoyl)-3,4-dihydroisoquinolin-2(1H)-yl)pyrimidine-4-carboxylic acid] |  | 7500
19 | O=C(CSc1ccccc1)Nc1ccc(N2CCc3cccc(C(=O)Nc4nc5ccccc5s4)c3C2)nc1C(=O)O [Compound 128, 6-(8-(benzo[d]thiazol-2-ylcarbamoyl)-3,4-dihydroisoquinolin-2(1H)-yl)-3-(2-(phenylthio)acetamido)picolinic acid] |  | 340
